Laboratory results as given in article PMC10708539, “Two Antimicrobial Peptides Derived from Bacillus and Their Properties” (Molecules, 2023).
Ends that are not written are not given here.

What was measured:
[1] = tested on: pepsin; assay: Protease stability of antimicrobial peptides; type: in vitro ADME; conditions: mixed 1:1 with 1 mg/mL pepsin, water bath 37 °C 1 h, then boiling water bath 5 min; control without protease; read-out inhibition circles against St. aureus ACCC 10499
Description: (§1) Appropriate amounts of purified antimicrobial peptide samples were placed in a water bath at 40 °C, 60 °C, 80 °C, 90 °C, and 100 °C for 30 min and high-temperature autoclave sterilization at 121 °C for 15 min respectively, to carry out temperature sensitivity tests. St. aureus ACCC 10499 was used as an indicator bacterium, and untreated samples were used as controls, with three parallel groups for each sample to observe the change in antibacterial activity. Similarly, the pH of the same amount for the antimicrobial peptide samples was adjusted to 2~10 in intervals of 1, and the neutral pH was 7.0 as the control. The samples with a different pH were kept in a water bath at 37 °C for 30 min. St. aureus ACCC 10499 was used as an indicator bacterium to detect the resistance of the antimicrobial peptide to an acid and base. In addition, appropriate antimicrobial peptide samples were mixed with 1 mg/mL solution of protease K, trypsin, and pepsin at 1:1, and were kept in a water bath at 37 °C for 1 h, followed by a boiling water bath for 5 min to inactivate the enzymes. The samples without protease treatment were used as controls and the changes in antibacterial activity were observed.

[2] = target: protease K (Parengyodontium album, UniProt P06873); assay: Protease stability of antimicrobial peptides; type: in vitro ADME; conditions: mixed 1:1 with 1 mg/mL protease K, water bath 37 °C 1 h, then boiling water bath 5 min; control without protease; read-out inhibition circles against St. aureus ACCC 10499
Description: as §1

[3] = tested on: trypsin; assay: Protease stability of antimicrobial peptides; type: in vitro ADME; conditions: mixed 1:1 with 1 mg/mL trypsin, water bath 37 °C 1 h, then boiling water bath 5 min; control without protease; read-out inhibition circles against St. aureus ACCC 10499
Description: as §1

[4] = tested on: St. aureus ACCC 10499; type: cell-based, Staphylococcus aureus
Description: (§2) The minimum inhibitory concentrations (MICs) of purified antimicrobial peptides against St. aureus ACCC 10499, B. cereus ACCC 04315, and Sa. enterica ACCC 01996 were determined by the double dilution method. The indicator bacteria cultures were diluted to an OD600 of 0.5 respectively, of which 50 μL of them were added into the sterile 96-well plate, and then 50 μL antimicrobial peptide samples with different concentrations were mixed with each indicator bacterium at a 1:1 ratio. The experiment was performed in three parallel sets. After incubation at 37 °C for 12–18 h, the OD600 value was determined by an Automatic growth curve analyzer (Bioscreen C, Turku, Finland), and the minimum concentration of 100% inhibition of indicator bacteria growth was used as the minimum inhibitory concentration.

[5] = tested on: B. cereus ACCC 04315; type: cell-based, Bacillus cereus
Description: as §2

[6] = tested on: Sa. enterica ACCC 01996; assay: MIC by double dilution method; type: cell-based, Salmonella enterica; conditions: 96-well plate, culture OD600 0.5 mixed 1:1 with peptide, 37 °C 12–18 h, OD600 read-out, minimum concentration of 100% growth inhibition, three parallel sets
Description: as §2

Sequence of protease K (P06873 106-384): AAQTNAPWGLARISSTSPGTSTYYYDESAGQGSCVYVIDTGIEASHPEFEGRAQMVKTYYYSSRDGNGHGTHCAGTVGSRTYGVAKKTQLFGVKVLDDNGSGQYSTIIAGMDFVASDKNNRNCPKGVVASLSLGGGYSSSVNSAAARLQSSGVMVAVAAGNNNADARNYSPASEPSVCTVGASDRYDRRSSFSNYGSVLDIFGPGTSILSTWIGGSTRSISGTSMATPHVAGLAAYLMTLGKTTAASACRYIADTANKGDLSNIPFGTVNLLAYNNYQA

Sequence | Antibacterial activity after treatment with pepsin [1] | Antibacterial activity after treatment with protease K [2] | Antibacterial activity after treatment with trypsin [3] | MIC [4] [µg/mL] | MIC [5] [µg/mL] | MIC [6] [µg/mL] | MIC ([6]; listed as peptide-II) [µg/mL]
FSGSGSGTAFTLR [Peptide-II] | no significant effect | significantly reduced | no significant effect | 16 | 64 | 16 | 8
VFLENVLR [Peptide-I] | insensitive | insensitive | insensitive | 64 | 32 | 8 | 
